Here are results for three compounds from EP1420008B1, “Composition, in particular cosmetic, comprising a secondary or tertiary amine” (L'ORÉAL, priority 2002, dated 2004).

pIC50: −log10 of the molar value.

The target of assay [1] is canaux calciques de type L, site vérapamil (Rattus norvegicus, UniProt P22002). Kind of assay: Calcium channel test: competitive inhibition of [3H](-) D 888 binding, rat cerebral cortex homogenates. From the text:
Le test mesure la capacité d'un produit à inhiber par compétition la fixation d'[…] de canaux calciques de type L, type Vérapamil. Ces canaux ont été identifiés au niveau des fibroblastes humains (Baumgarten LB and coll (1992), J. Biol. Chem, 267, 10524-10530 et Chen CF and coll (1988), Science, 239, 1024-1026).
Les études sont réalisées à partir d'homogénats de cortex cérébral de rat (membranes isolées présentant à leur surface notamment les canaux calciques de type L).
Les conditions expérimentales selon le protocole décrit par Reynolds I.J. et al., 1986, J. Pharmacol. Exp. Ther., 237, p.731, sont présentées dans le tableau 1 ci-dessous : Tableau 1
D888 et D600 sont les molécules de référence spécifiques des canaux calciques de type L, site vérapamil.
La liaison spécifique d'un ligand (D888 marqué) aux récepteurs (canaux calciques de type L, site vérapamil) est défini comme la différence entre la liaison totale et la liaison non spécifique déterminée en présence d'un excès de ligand non radioactif. Les résultats sont exprimés en pourcentage de liaison spécifique témoin et en pourcentage d'inhibition de cette liaison en présence des composés testés.
Les valeurs d'IC50 (concentration inhibant 50% de la liaison spécifique témoin) et du coefficient de Hill (nH) sont calculées pour les composés testés à partir des courbes de compétition selon un modèle de régression non linéaire. […]

The test system of assay [2] is jonction nerf / muscle (plaque motrice). The assay can be described thus: Nerve/muscle junction model (motor end plate): isolated rat phrenic nerve / diaphragm preparation, contractions induced by indirect stimulation. Conditions: for inhibition at 100 µM: Rattus norvegicus, concentration 10^-4 M, contractions induced by stimulation of the phrenic nerve (0.1 à 0.5 volts, 0.3 ms, 0.1 Hz), read-out: % INHIBITION DES CONTRACTIONS
The protocol:
Le composé 1 a été testé sur un modèle de jonction nerf / muscle (plaque motrice) obtenu dans une préparation nerf phrénique / diaphragme isolé de rat (muscle strié) (Pollard B.J. et al, Br.J. Anaesth., 1988, 61, 419-424).
(§1) Ce test est prédictif d'un effet anti-rides, comme cela a été vérifié par la Demanderesse sur le diazépam, qui est à la fois actif in vivo chez l'homme et dans ce test à 10^-4 M.
Le nerf phrénique et le diaphragme sont soigneusement isolés et placés dans une cuve de 50 ml remplie de liquide de survie (liquide de Krebs Henseleit) maintenu à une température de 37°C et oxygéné à l'aide d'un mélange oxygène/CO2 (95/5).
Les variations de tension du diaphragme sont enregistrées avec une pré-charge initiale de plusieurs grammes.
Après une période de relaxation de 30 mn, le diaphragme est stimulé indirectement par l'intermédiaire du nerf phrénique.
Sur chaque préparation, l'effet du composé à tester a été évalué sur les contractions induites par stimulation indirecte via stimulation sur le nerf phrénique (0.1 à 0.5 volts, 0.3 ms, 0.1 Hz). L'alvérine, connue comme composé myorelaxant à effet anti-rides d'après la demande FR-2 798 590, est utilisée comme témoin.

Assay [3] can be described thus: Anti-wrinkle effect in vivo in man (verification of the predictive value of the nerve/muscle test). Conditions: in vivo chez l'homme.
Description: as §1

Chain of canaux calciques de type L, site vérapamil (P22002 whole entry): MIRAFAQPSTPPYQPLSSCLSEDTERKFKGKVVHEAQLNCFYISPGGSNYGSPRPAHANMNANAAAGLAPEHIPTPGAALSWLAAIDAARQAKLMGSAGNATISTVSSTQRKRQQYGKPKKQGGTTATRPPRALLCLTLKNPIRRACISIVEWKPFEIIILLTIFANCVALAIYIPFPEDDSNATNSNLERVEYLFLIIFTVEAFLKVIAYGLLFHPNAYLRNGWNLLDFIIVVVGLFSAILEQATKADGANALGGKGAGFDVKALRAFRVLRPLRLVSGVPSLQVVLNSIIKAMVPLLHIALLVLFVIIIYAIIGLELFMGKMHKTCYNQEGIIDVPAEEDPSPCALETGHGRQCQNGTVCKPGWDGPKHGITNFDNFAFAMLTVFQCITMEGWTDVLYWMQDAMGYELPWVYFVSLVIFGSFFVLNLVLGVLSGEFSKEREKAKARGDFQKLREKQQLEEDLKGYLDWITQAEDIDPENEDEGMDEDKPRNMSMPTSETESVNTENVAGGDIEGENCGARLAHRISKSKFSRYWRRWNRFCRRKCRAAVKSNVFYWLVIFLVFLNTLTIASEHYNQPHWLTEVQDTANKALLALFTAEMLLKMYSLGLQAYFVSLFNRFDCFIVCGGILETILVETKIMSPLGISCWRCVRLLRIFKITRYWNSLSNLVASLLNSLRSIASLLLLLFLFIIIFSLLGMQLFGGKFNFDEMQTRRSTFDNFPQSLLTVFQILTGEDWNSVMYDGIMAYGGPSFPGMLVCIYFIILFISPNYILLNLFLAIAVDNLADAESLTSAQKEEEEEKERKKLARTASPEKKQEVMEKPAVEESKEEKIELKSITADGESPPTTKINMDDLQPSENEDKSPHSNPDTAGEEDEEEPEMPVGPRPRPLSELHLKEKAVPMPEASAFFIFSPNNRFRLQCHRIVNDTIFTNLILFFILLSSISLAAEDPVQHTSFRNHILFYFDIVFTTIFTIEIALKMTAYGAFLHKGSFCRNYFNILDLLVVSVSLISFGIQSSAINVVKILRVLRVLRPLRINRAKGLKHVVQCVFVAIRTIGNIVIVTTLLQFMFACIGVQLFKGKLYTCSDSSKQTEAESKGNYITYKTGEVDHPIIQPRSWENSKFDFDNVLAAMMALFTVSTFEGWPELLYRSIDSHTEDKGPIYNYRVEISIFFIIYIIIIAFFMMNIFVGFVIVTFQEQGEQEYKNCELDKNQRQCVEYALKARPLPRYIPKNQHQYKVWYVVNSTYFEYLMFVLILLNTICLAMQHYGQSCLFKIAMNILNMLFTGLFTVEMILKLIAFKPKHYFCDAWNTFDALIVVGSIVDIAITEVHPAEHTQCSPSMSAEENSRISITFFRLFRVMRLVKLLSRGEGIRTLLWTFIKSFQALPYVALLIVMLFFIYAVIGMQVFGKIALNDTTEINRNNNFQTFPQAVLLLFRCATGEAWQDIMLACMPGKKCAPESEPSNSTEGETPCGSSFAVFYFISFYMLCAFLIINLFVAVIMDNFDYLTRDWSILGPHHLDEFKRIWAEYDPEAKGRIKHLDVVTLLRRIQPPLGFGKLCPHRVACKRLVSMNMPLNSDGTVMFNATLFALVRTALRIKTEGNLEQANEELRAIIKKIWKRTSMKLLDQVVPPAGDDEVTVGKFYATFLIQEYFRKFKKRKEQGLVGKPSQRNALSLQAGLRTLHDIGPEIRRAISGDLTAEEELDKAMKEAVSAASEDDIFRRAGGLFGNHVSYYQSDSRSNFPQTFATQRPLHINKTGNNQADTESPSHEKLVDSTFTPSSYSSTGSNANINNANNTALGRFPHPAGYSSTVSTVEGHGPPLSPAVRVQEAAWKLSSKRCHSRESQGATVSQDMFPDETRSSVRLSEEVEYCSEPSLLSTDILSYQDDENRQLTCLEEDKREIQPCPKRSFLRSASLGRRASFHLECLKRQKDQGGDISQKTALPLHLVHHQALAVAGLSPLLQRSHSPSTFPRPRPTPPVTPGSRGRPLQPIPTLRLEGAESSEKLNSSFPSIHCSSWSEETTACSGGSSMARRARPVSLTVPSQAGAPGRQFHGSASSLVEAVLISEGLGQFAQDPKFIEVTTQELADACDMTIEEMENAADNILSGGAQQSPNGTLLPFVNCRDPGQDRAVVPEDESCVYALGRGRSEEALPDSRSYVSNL

With `CCN(CCCc1ccccc1)CCCc1ccccc1` [Alvérine], the pIC50 in assay [1] (ligand [^3H](-) D 888 0.5 nM, non-specific D 600 (10 µM), 60 min. /22°C, measured in duplicate) is 6.16. Besides, the inhibition at 100 µM in assay [2] worked out at 100%.

On to `CCCCCC(O)(CCCCC)CCN(CC)CCCc1ccccc1` [Composé 1, 6-[2-{ethyl-(3-phenyl-propyl)amino}-ethyl]-undecan-6-ol], for which the “calcium channel inhibition compared with alvérine” value in assay [1] (conclusion from the IC50 values of Tableau 2) is “meilleur inhibiteur de canaux calciques que l'alvérine”. Further, in assay [2], the inhibition at 100 µM worked out at 100%.

Regarding `CN1C(=O)CN=C(c2ccccc2)c2cc(Cl)ccc21` [diazépam], the “activity in vivo (anti-wrinkle effect)” value in assay [3] is given as “actif”. The “activity in the nerve/muscle junction test” value in assay [2] (10^-4 M) is “actif”.

A word on the pIC50: it is the IC50 on a negative log10 scale, so that one unit is a factor of ten. For orientation: inhibition means the relative decrease from the control value, in per cent.
